# From PMC8774682, “Inhibitory Mechanism of Baicalein on Acetylcholinesterase: Inhibitory Interaction, Conformational Change, and Computational Simulation” (Foods, 2022)
# Where two headings read alike, the source gives them in different places.
# Assays:
# AChE [1] = target: T1, AChE (Electrophorus electricus, UniProt O42275); assay: Far-UV CD spectra, secondary structure of AChE; settings: c(AChE) = 0.75 µM
# T1 construct: purchased Sigma-Aldrich Co. (St. Louis, MO, USA)
# Procedure: Far-UV CD spectra were measured using a spectrometer (MOS 450 CD; Bio-Logic, Claix, France) with a 1.0 mm path length quartz cuvette. All the spectra were measured in the 200–240 nm range at 25 °C, and the associated scan speed was 60 nm min^−1. The AChE in the PBS was completely blended with baicalein at varying concentrations and then equilibrated for three min before CD measurements. The spectra were amended by subtracting the spectrum of the buffer with that of baicalein at the same concentration as the sample solution. Three scans were conducted, and the ellipticity in millidegrees indicated the results. The contents of the discrepant secondary structures (α-helix, β-sheet, β-turn, and random coil) from AChE were measured based on CD spectroscopic data following the online SELCON3 program (http://dichroweb.cryst.bbk.ac.uk/html/home.shtml. Accessed on: 18 August 2021).
# AChE [2] = target: T1, AChE; assay: Kinetic analysis of the inhibitory type (Lineweaver–Burk plots, v vs. AChE plots); format: biochemical
# From the text: The Lineweaver–Burk plots and Michaelis–Menten enzyme kinetics were applied to analyse the inhibitory type. For competitive type inhibition, the dynamic double reciprocal equation was used as follows:(1) 1/v=Km/vmax(1+(I) /Ki)1/(S)+1/vmax (2) Kmapp=Km(I)/Ki+Km where (I) and (S) denote the inhibitor and substrate concentrations, respectively; ν represents the enzyme reaction rate irrespective of the presence of baicalein; νmax is the maximum catalytic reaction rate; Ki, Km, and Kmapp stand for the inhibition constant, Michaelis−Menten constant, and apparent Michaelis constant, respectively.
# AChE [3] = target: T1, AChE; assay: Time-course test of AChE inactivation kinetics; format: biochemical
# Procedure: The kinetic process and rate constants for enzyme inactivation were determined through the time-course test. Baicalein with concentrations of 2, 4, 8, and 16 µM was used for analysing the time-course. Enzyme activity at each concentration was measured every 3 min for 0–30 min, every 6 min for 30–60 min, and then at 70 and 80 min.
# AChE [4] = target: T1, AChE; assay: Fluorescence quenching and synchronous fluorescence of AChE; format: binding
# Procedure: A spectrofluorometer (model F-7000; Hitachi, Tokyo, Japan) containing a thermostat bath was used to measure the fluorescence spectra. The AChE solution (2.5 mL; 0.17 µM) was introduced into a 1.0 cm path length quartz cell, followed by titration through the successive addition of 2.0 mM of diluted baicalein solution (to obtain the concentration range of 0–16 µM). The well-mixed solutions were set aside for three min for equilibration purposes. The fluorescence spectra were measured in the 290–450 nm range, and the relevant excitation wavelength set was 280 nm at 25 °C, 31°C, and 37 °C. Excitation and emission bandwidths were 2.5 nm. In addition, synchronous fluorescence spectra for AChE with baicalein were conducted by fixing the interval of excitation and emission wavelength constants at 15 nm and 60 nm. Fluorescence data were amended according to our previous reports to erase the re-absorption possibility and the inner filter effects of UV absorption.
# The binding constant (Ka) for the AChE–bacalein complex and the binding site number (n) were measured using Equation (3):(3) logF0−F/F=nlogKa−nlog1/(Qt)−(F0−F)(Pt)/F0
# In general, four noncovalent interaction forces exist between small molecules and macromolecules, namely hydrogen bonds, van der Waals forces, electrostatic forces, and hydrophobic interactions. To identify the binding forces between bacalein and AChE, the thermodynamic parameters were measured following the Van’t Hoff equation:(4) logKa=−ΔH°/2.303RT+ΔS°/2.303R (5) ΔG°=ΔH°−TΔS° where Ka denotes the binding constant, and R represents the gas constant (8.314 J mol^−1 K^−1). The temperatures (T) used were 25 °C, 31 °C, and 37 °C.
# PC12 cells = assay: Cytotoxicity in PC12 cells (MTT assay); format: cell-based; settings: 1–80 µM, 24 h
# Procedure: PC12 cells were purchased from the NanJing KeyGen Biotech Co. Ltd. (Nanjing, China). These cells were cultivated in high-glucose DMEM supplemented with 10% FBS, 100 U/mL of penicillin and 100 µg/mL of streptomycin at 37 °C under a humidified 5% CO2 atmosphere. Baicalein was dissolved in DMSO to prepare a 5 mM stock solution and diluted with serum-free media before use. PC12 cells were seeded into a 96-well plate at the density of 2 × 10 ^4 cells/well (100 μL) and cultured for 24 h. Next, the medium was changed, and the cells were treated with baicalein at 0, 1, 10, 20, 40, and 80 µM. Each concentration had six replicate wells, and the culture was continued for 24 h. To determine the effect of baicalein on cell viability, 20 µL of MTT (5 mg/mL) was added to each well. After 4 h, the resulting formazan crystals were dissolved by adding 150 μL of DMSO for 10–15 min. The absorption (O.D.) of each hole at 570 nm wavelength was measured using an enzyme-labelled instrument (Varioskan LUX; Thermo Fisher Scientific, Waltham, MA, USA). Cell viability was expressed as the percentage of the control.
# AChE [5] = target: T1, AChE; assay: AChE activity assay (Ellman's method, modified); format: biochemical
# Procedure: AChE (137 U/mg, Electrophorus electricus) was provided by Sigma-Aldrich Co. (St. Louis, MO, USA), and their stock solutions with 10 U/mL concentrations were prepared with 0.1 M phosphate-buffered saline (pH 7.6) and stored at −20 °C. Baicalein (purity ≥ 98%) was obtained from the National Institute for the Control of Pharmaceutical and Biological Products (Beijing, China) and dissolved in ethanol to prepare the stock solution (5 mM). 5,5-Dithiobis-(2-nitrobenzoic acid) (DTNB), acetylthiocholine iodide (ATCI), galathamine hydrobromide, and 3-(4, 5-dimethylthiazol-2-yl)-2,5-diphenyltetrazolium bromide (MTT) were provided by Aladdin Chemistry Co., Ltd. (Shanghai, China). Foetal bovine serum (FBS) was purchased from Gibco (Carlsbad, CA, USA). Dulbecco’s modified Eagle’s medium (DMEM), trypsin, and other cell culture reagents were purchased from Solarbio (Beijing, China). All remaining reagents were of analytical grade.
# AChE activity was evaluated per Ellman’s method, albeit with a slight modification. Quartz cuvettes (3 mL) were utilised for measuring the assay mixture activity. Solutions containing varying amounts of baicalein, phosphate-buffered saline (0.1 M, pH 7.6), and 50 µL of AChE (2 U/mL, 3.4 × 10^−8 M) were cultivated in 30 min at 25 °C. After the pre-incubation period, 50 μL of 5, 5-dithiobis-(2-nitrobenzoic) acid (DNTB, 5 mM) was added. The reaction was then initiated with 50 μL of acetylthiocholine iodide (ATCI, 15 mM). The absorbance at 412 nm was monitored every 5 s with the TU−1901 dual-beam UV–Vis Spectrophotometer (Persee; Beijing, China). The samples were measured thrice, and the average value was considered. Enzyme activity without baicalein was identified to be 100%. […] Galantamine hydrobromide served as the positive control.
# [6] = Van't Hoff equation, 25, 31, 37 °C
# T1 sequence (O42275 24-633): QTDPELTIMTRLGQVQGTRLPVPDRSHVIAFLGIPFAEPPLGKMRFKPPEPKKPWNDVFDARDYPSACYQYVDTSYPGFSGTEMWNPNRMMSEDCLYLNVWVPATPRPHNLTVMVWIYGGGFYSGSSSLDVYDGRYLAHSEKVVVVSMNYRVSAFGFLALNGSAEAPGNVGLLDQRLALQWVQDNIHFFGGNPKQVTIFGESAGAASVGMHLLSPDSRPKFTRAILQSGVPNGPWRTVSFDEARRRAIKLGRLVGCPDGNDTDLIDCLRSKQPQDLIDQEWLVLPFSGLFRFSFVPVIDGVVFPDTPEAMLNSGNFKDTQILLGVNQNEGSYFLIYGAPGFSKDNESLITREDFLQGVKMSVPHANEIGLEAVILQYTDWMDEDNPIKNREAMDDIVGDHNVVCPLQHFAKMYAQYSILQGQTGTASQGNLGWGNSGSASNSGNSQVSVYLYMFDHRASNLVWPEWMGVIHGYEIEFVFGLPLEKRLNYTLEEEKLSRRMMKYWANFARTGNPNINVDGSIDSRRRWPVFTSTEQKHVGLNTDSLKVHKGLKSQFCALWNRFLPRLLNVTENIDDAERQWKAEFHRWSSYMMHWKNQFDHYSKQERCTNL
structure (smiles),measurement,setting,value
"O=c1cc(-c2ccccc2)oc2cc(O)c(O)c(O)c12 [baicalein, 5,6,7-trihydroxyflavone]",Random coil content of AChE,AChE [1]; molar ratio baicalein:AChE 2:1,25.36 ± 0.29%
same,α-Helix content of AChE,AChE [1]; molar ratio baicalein:AChE 2:1,38.82 ± 0.08%
same,β-Sheet content of AChE,AChE [1]; molar ratio baicalein:AChE 2:1,14.57 ± 0.13%
same,β-Turn content of AChE,AChE [1]; molar ratio baicalein:AChE 2:1,21.42 ± 0.57%
same,Random coil content of AChE,AChE [1]; molar ratio baicalein:AChE 6:1,21.71 ± 0.47%
same,α-Helix content of AChE,AChE [1]; molar ratio baicalein:AChE 6:1,42.53 ± 0.35%
same,β-Sheet content of AChE,AChE [1]; molar ratio baicalein:AChE 6:1,7.73 ± 0.03%
same,β-Turn content of AChE,AChE [1]; molar ratio baicalein:AChE 6:1,28.15 ± 0.89%
same,Ki,"AChE [2]; Lineweaver–Burk, baicalein 0, 4, 8, 10 µM, c(AChE) = 0.57 nM, read-out: Ki (inhibition constant)",4.32 ± 0.26 µM
same,inhibition type,AChE [2]; double reciprocal plots intersect on the Y axis,competitive
same,inhibition reversibility,"AChE [2]; plots of v vs. AChE concentration, baicalein 0-16 µM",reversible
same,Inactivation rate constant k,AChE [3]; baicalein 2 µM,1.48 ± 0.03 ×10^−4 s^−1
same,Inactivation rate constant k,AChE [3]; baicalein 4 µM,2.42 ± 0.05 ×10^−4 s^−1
same,Inactivation rate constant k,AChE [3]; baicalein 8 µM,4.01 ± 0.02 ×10^−4 s^−1
same,Inactivation rate constant k,AChE [3]; baicalein 16 µM,5.18 ± 0.08 ×10^−4 s^−1
same,"bimolecular quenching constant Kq, magnitude order",AChE [4]; 25-37 °C,~10^13 L mol^−1 s^−1
same,Kd,"AChE [4]; 25-37 °C, read-out: binding constant, order of magnitude",~100 µM
same,binding site number n,AChE [4]; 25 °C,0.88 ± 0.01
same,quenching constant KSV,AChE [4]; 25 °C,6.45 ± 0.02 ×10^4 L mol^−1
same,∆G°,AChE [4]; 25 °C,-5.428 ± 0.014 kcal/mol
same,Kd,"AChE [4]; 25 °C, read-out: binding constant Ka (converted)",15 µM
same,binding site number n,AChE [4]; 31 °C,0.93 ± 0.03
same,quenching constant KSV,AChE [4]; 31 °C,5.78± 0.03 ×10^4 L mol^−1
same,∆G°,AChE [4]; 31 °C,-5.457 ± 0.0072 kcal/mol
same,Kd,"AChE [4]; 31 °C, read-out: binding constant Ka (converted)",17.1 µM
same,binding site number n,AChE [4]; 37 °C,1.13 ± 0.02
same,quenching constant KSV,AChE [4]; 37 °C,5.22± 0.07 ×10^4 L mol^−1
same,∆G°,AChE [4]; 37 °C,-5.483 ± 0.019 kcal/mol
same,Kd,"AChE [4]; 37 °C, read-out: binding constant Ka (converted)",19.6 µM
same,∆H°,AChE [4]; [6],-4.065 ± 0.0048 kcal/mol
same,∆S°,AChE [4]; [6],19.15 ± 0.09 J mol^−1 K^−1
same,"synchronous fluorescence quenching ratio RSFQ, Tyr residues","AChE [4]; Δλ = 15 nm, baicalein up to 16.0 μM, c(AChE) = 0.17 µM",58.48%
same,"synchronous fluorescence quenching ratio RSFQ, Trp residues","AChE [4]; Δλ = 60 nm, baicalein up to 16.0 μM, c(AChE) = 0.17 µM",63.83%
same,"cytotoxicity (cell viability, MTT)",PC12 cells,nontoxic
same,IC50,AChE [5],6.42 ± 0.07 µM
same,inhibition at 26.7 µM,AChE [5]; read-out: final inhibition rate of AChE activity,90%
"O=C(O)[C@H]1O[C@@H](Oc2cc3oc(-c4ccccc4)cc(=O)c3c(O)c2O)[C@H](O)[C@@H](O)[C@@H]1O [baicalin, reference compound]",IC50,AChE [5],204 ± 16.5 µM
